The results in this text go back to paper PMC12508159 (NPJ Biofilms and Microbiomes, 2025).

The structures appear in SMILES notation.

Assay [1] has as its target T1, serine-rich adhesin for platelets (SraP), L-lectin module (SLL) (Staphylococcus aureus, UniProt Q8NUJ3). Nature of the assay: SPR. It counts as binding.
Assay [2] concerns the target T1, serine-rich adhesin for platelets (SraP), L-lectin module (SLL). As to the kind of experiment: SPR. The assay is classed as binding. The source holds these as a separate data set.

T1 sequence (Q8NUJ3 245-480): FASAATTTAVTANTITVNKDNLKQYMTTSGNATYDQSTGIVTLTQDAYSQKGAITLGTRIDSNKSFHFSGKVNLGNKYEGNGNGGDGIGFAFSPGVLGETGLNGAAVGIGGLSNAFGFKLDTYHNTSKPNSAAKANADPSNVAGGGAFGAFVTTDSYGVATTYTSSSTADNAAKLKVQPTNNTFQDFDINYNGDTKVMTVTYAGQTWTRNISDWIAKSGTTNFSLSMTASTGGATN

With `O=C1O[C@H]2[C@@H]3OC(=O)c4cc(O)c(O)c(O)c4-c4c(O)c(O)c5oc(=O)c6c(c(O)c(O)c7oc(=O)c4c5c76)-c4c(cc(O)c(O)c4O)C(=O)OC[C@H]3OC(O)[C@@H]2OC(=O)c2cc(O)c(O)c(O)c2-c2c1cc(O)c(O)c2O` (mixture of isomers) [PA, punicalagin], the Kd – broadly, the concentration at which binding is half-saturated – in assay [1] was determined as 566 nM. `COc1cc(-c2oc3cc(O)cc(O)c3c(=O)c2O[C@@H]2O[C@H](CO[C@@H]3O[C@@H](C)[C@H](O)[C@@H](O)[C@H]3O)[C@@H](O)[C@H](O)[C@H]2O)ccc1O` [isorhamnetin-3-O-β-rutinoside]: the “SPR (Biacore T200), dose-dependent” value in assay [2] is “isorhamnetin-3-O-β-rutinoside, EGCG, neoeriocitrin, and isoviolanthin, were verified to possess strong binding signals in a dose-dependent manner”. `C[C@@H]1O[C@@H](O[C@H]2[C@H](Oc3cc(O)c4c(c3)O[C@H](c3ccc(O)c(O)c3)CC4=O)O[C@H](CO)[C@@H](O)[C@@H]2O)[C@H](O)[C@H](O)[C@H]1O` [neoeriocitrin]: the “SPR (Biacore T200), dose-dependent” value in assay [2] is “EGCG, neoeriocitrin, and isoviolanthin, were verified to possess strong binding signals in a dose-dependent manner”.
